Assay results reported in patent publication US20250213700A1, “COMPOUNDS, COMPOSITIONS, AND METHODS FOR CELL-SPECIFIC PHARMACOLOGY” (Duke University, priority 2022, published 2025).

What follows are compounds tested against T1, HaloTag Protein (HTP) on +HTP neurons (Rhodococcus rhodochrous, UniProt P0A3G2, A155T/A167V/A172T/A224E/C128F/C176G/D78G/E160K/E257K/H272N/K175M/K195N/L47V/L88M/N227D/S58T/T264A/Y273L/Y87F) (assay: biotin-HTL capture dose-response on +HTP cultured neurons). Conditions: EC 50 (nM), concentration for half-maximal capture on +HTP neurons following 15 minutes of incubation.
T1 construct: SSnlg signal peptide (residues 1-49 of mouse neuroligin-1) (N); ERXL (Kir2.1 trafficking and ER export signals); expressed in transfected cells; host or cells: primary rat hippocampal neurons, electroporated with plasmid
Format: cell-based, rat
Procedure: Cultured neuronal assays: Preparation of hippocampal cultures: Mixed glial and neuronal cultures were prepared from the hippocampus of postnatal day 0 to 1 Sprague-Dawley rat pups. Separate pools of dissociated cells were transfected via electroporation (LONZA, V4SP-3096) with plasmid constructs, and depending on assay directives, either plated individually or mixed with a different pool of electroporated cells after a 10 min recovery period. Cells were cultured on coverslips (Deckglaser) pre-treated with high molecular weight poly-D-lysine (Sigma, P7405; 0.05 mg/mL) in 24-well plates and maintained in NbActiv4 (BrainBits, Nb4-500) at 37 C, 5% CO2. Media was changed by half at DIV3 or 4 and then weekly thereafter; experiments were performed between DIV16 to DIV18.
For any given neuronal assay, coverslips were first washed briefly in a resting BASE solution containing (in mM): 4 KCl, 2 CaCl2), 2 MgCl2, 150 NaCl, 10 HEPES, 10 glucose, pH 7.4, before transfer to a glass-bottom, 24-well imaging plate (Cellvis, P24-1.5H—N). Live cell imaging was performed on an Olympus IX83 inverted fluorescent microscope (10× objective, […].) with LED illumination for GFP (Excitation=485 nm), TR (Ex=560 nm), Cy5/Alexa647 (Ex=640 nm) and Cy7/AlexaFluor750 (Cy7=740 nm) depending on the specific assay directives.
biotin-HTL: Dissociated neurons were electroporated with either the +HTP or ddHTP construct and cultured as described above. A dilution series for both the biotin-PEG12-HTL.1 and biotin-PEG12-HTL.2 compounds was made in BASE solution containing 1% BSA (Sigma A7904), representing 12 final concentrations (in uM) between 10 and 0.001. After a brief rinse in BASE+BSA to acclimate the live neurons to room temperature and avoid temperature effects to the binding kinetics, a single coverslip was incubated in one of the twelve dilutions for 15 min, washed twice in BASE+BSA, then incubated in a 1:500 dilution of Streptavidin-AlexaFluor488 (Invitrogen) for 15 min. The neurons were rinsed four times then transferred to a glass-bottom imaging plate containing BASE+BSA. Each coverslip was imaged in its entirety by combining several 10× images (TR at 10 ms; GFP at 100 ms) together using the Olympus CellSens software stitching algorithm. A dose-response curve was created from the individual coverslips using MatLab.
To enable direct quantification of capture efficiency, commercially available HTL (i.e., HTL.1) were conjugated to biotin via a flexible polyethylene glycol linker of moderate length (PEG12), to mimic the longer (PEG36) linker typically used in an RxDART. Capture kinetics were characterized on cultured neurons expressing HTP on their surface [HTPNLG(432-648), as in, to model the cellular microenvironment of interest. Dose-response curves were performed by incubating neuronal coverslips with a given ligand for 15 min, followed by washing, fluorescent labeling of biotin, and quantification of capture. […] Thus, it was reasoned that improving HTL50 would widen the DW for any Rx cargo.

T1 sequence (P0A3G2 other isoform, or with tags, fused parts or gaps with the stated changes): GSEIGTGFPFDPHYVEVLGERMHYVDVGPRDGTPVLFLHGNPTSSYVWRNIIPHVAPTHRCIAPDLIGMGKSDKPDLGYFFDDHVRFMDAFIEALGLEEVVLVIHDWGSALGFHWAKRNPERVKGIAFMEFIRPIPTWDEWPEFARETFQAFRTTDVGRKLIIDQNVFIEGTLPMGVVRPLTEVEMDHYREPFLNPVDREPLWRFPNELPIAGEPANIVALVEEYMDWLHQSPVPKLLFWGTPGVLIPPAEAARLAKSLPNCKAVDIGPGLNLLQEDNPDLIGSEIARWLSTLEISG

How did the EC50 turn out when `O=C(CCCC[C@@H]1SC[C@@H]2NC(=O)N[C@@H]21)NCCOCCOCCOCCOCCOCCOCCOCCOCCOCCOCCOCCOCCC(=O)NCCOCCOCCCCCCCl` was run?
The EC50 was 1000 nM.

Which EC50 does the source give for `O=C(CCCC[C@@H]1SC[C@@H]2NC(=O)N[C@@H]21)NCCOCCOCCOCCOCCOCCOCCOCCOCCOCCOCCOCCOCCC(=O)NCc1ccc(C(=O)NCCOCCOCCCCCCCl)cc1` here?
Its EC50 is 150 nM.

Which EC50 does the source give for `COc1cc(CCCCl)ccc1CCOCCNC(=O)c1ccc(CNC(=O)CCOCCOCCOCCOCCOCCOCCOCCOCCOCCOCCOCCOCCNC(=O)CCCC[C@@H]2SC[C@@H]3NC(=O)N[C@@H]32)cc1` here?
The EC50 was 10 nM.

Which EC50 does the source give for `COc1cc(CCCCCl)ccc1CCOCCNC(=O)c1ccc(CNC(=O)CCOCCOCCOCCOCCOCCOCCOCCOCCOCCOCCOCCOCCNC(=O)CCCC[C@@H]2SC[C@@H]3NC(=O)N[C@@H]32)cc1` here?
Its EC50 is 30 nM.

`COc1cc(/C=C/CCCl)ccc1CCOCCNC(=O)c1ccc(CNC(=O)CCOCCOCCOCCOCCOCCOCCOCCOCCOCCOCCOCCOCCNC(=O)CCCC[C@@H]2SC[C@@H]3NC(=O)N[C@@H]32)cc1` was tested. Which EC50 did it give?
Its EC50 is 20 nM.

How did the EC50 turn out when `COc1cc(CCCCCCl)ccc1CCOCCNC(=O)c1ccc(CNC(=O)CCOCCOCCOCCOCCOCCOCCOCCOCCOCCOCCOCCOCCNC(=O)CCCC[C@@H]2SC[C@@H]3NC(=O)N[C@@H]32)cc1` was run?
Its EC50 is 4000 nM.

With `COc1cc(CCCCl)ccc1CC(=O)NCCNC(=O)c1ccc(CNC(=O)CCOCCOCCOCCOCCOCCOCCOCCOCCOCCOCCOCCOCCNC(=O)CCCC[C@@H]2SC[C@@H]3NC(=O)N[C@@H]32)cc1` as the compound, how does the EC50 read?
Its EC50 is 20000 nM.

How did the EC50 turn out when `COc1cc(CCCCl)ccc1OCCCCNC(=O)c1ccc(CNC(=O)CCOCCOCCOCCOCCOCCOCCOCCOCCOCCOCCOCCOCCNC(=O)CCCC[C@@H]2SC[C@@H]3NC(=O)N[C@@H]32)cc1` was run?
The EC50 was 50 nM.

With `COc1cc(CCCCBr)ccc1OCCCCNC(=O)c1ccc(CNC(=O)CCOCCOCCOCCOCCOCCOCCOCCOCCOCCOCCOCCOCCNC(=O)CCCC[C@@H]2SC[C@@H]3NC(=O)N[C@@H]32)cc1` as the compound, how does the EC50 read?
Its EC50 is 30 nM.

For `O=C(CCCC[C@@H]1SC[C@@H]2NC(=O)N[C@@H]21)NCCOCCOCCOCCOCCOCCOCCOCCOCCOCCOCCOCCOCCC(=O)NCc1ccc(C(=O)NCCCCOc2ccc(CCCCCl)cc2O)cc1`, which EC50 is on record?
The EC50 was 30 nM.

For `COc1cc(CCCCI)ccc1OCCCCNC(=O)c1ccc(CNC(=O)CCOCCOCCOCCOCCOCCOCCOCCOCCOCCOCCOCCOCCNC(=O)CCCC[C@@H]2SC[C@@H]3NC(=O)N[C@@H]32)cc1`, which EC50 is on record?
The EC50 was 30 nM.

With `O=C(CCCC[C@H]1SC[C@H]2NC(=O)N[C@H]21)NCCOCCOCCOCCOCCOCCOCCOCCOCCOCCOCCOCCOCCC(=O)NCc1ccc(C(=O)NCCCCOc2ccc(CCCCCl)cc2F)cc1` as the compound, how does the EC50 read?
Its EC50 is 45 nM.

Which EC50 does the source give for `CCOc1cc(CCCCCl)ccc1OCCCCNC(=O)c1ccc(CNC(=O)CCOCCOCCOCCOCCOCCOCCOCCOCCOCCOCCOCCOCCNC(=O)CCCC[C@@H]2SC[C@@H]3NC(=O)N[C@@H]32)cc1` here?
The EC50 was 70 nM.

With `Nc1cc(CCCCCl)ccc1OCCCCNC(=O)c1ccc(CNC(=O)CCOCCOCCOCCOCCOCCOCCOCCOCCOCCOCCOCCOCCNC(=O)CCCC[C@H]2SC[C@H]3NC(=O)N[C@H]32)cc1` as the compound, how does the EC50 read?
The EC50 was 70 nM.

For `O=C(CCCC[C@@H]1SC[C@@H]2NC(=O)N[C@@H]21)NCCOCCOCCOCCOCCOCCOCCOCCOCCOCCOCCOCCOCCC(=O)NCc1ccc(C(=O)NCCCCOc2ccc(CCCCCl)cc2Cl)cc1`, which EC50 is on record?
The EC50 was 100 nM.

Which EC50 does the source give for `O=C(CCCC[C@H]1SC[C@H]2NC(=O)N[C@H]21)NCCOCCOCCOCCOCCOCCOCCOCCOCCOCCOCCOCCOCCC(=O)NCc1ccc(C(=O)NCCCCOc2ccc(CCCCCl)cc2)cc1` here?
Its EC50 is 110 nM.

For `O=C(CCCC[C@@H]1SC[C@@H]2NC(=O)N[C@@H]21)NCCOCCOCCOCCOCCOCCOCCOCCOCCOCCOCCOCCOCCC(=O)NCc1ccc(C(=O)NCCCCOc2ccc(CCCCCl)cc2OC(F)(F)F)cc1`, which EC50 is on record?
The EC50 was 1500 nM.

With `COc1c(/C=C\CCCl)cccc1OCCCCNC(=O)c1ccc(CNC(=O)CCOCCOCCOCCOCCOCCOCCOCCOCCOCCOCCOCCOCCNC(=O)CCCC[C@@H]2SC[C@@H]3NC(=O)N[C@@H]32)cc1` as the compound, how does the EC50 read?
The EC50 was 55 nM.

Which EC50 does the source give for `COc1cc(CCCCl)ccc1C(=O)NCCCNC(=O)c1ccc(CNC(=O)CCOCCOCCOCCOCCOCCOCCOCCOCCOCCOCCOCCOCCNC(=O)CCCC[C@@H]2SC[C@@H]3NC(=O)N[C@@H]32)cc1` [drawing 133] here?
The EC50 was 200 nM.
